Assay results reported in patent US9108936B2, “Substituted 4-aminobenzamides as KCNQ2/3 modulators” (GRUENENTHAL GMBH, priority 2012, dated 2015).

Legend:
[1] = molecular target: T1, KCNQ2/3 channels (Homo sapiens, UniProt O43525+O43526); experiment: Fluorescence assay using a voltage sensitive dye (fluorimetry); format: cell-based; settings: CHO-K1 cells expressing KCNQ2/3; for Emax: plateau effect relative to saturated Retigabine (50 μM), read-out: Fluorimetry % efficacy (retigabine = 100%); for EC50: voltage-sensitive dye, KCl depolarization, read-out: Fluorimetry EC50/IC50
T1 construct: expressed in transfected cells; host or cells: CHO-K1
Description: Method I. Fluorescence Assay Using a Voltage Sensitive Dye (Fluorimetry)
The modulation of the KCNQ opening state (and consequently the voltage potential of a cell) by test compounds such as compounds according to the present invention results in an increased or reduced amount of a voltage-sensitive dye in the cytoplasm of the cells tested. These voltage-sensitive dyes are fluorescent dyes and, therefore, are forming the link between cell potential influenced by KCNQ modulation and fluorescence intensity. A KCNQ agonist leads to an opening of the channel, potassium and dye efflux, a following hyperpolarization and a reduction of the inner fluorescence intensity in a kinetic protocol. If applying an ion jump by KCl depolarization, KCNQ agonists increase the ΔF/F value. An antagonist performs vice versa, respectively.
The ‘fluorimetry EC50’ is the half maximum effective concentration (EC50), where the concentration of a drug/compound induces a response halfway between the baseline and maximum plateau effect. In other words, said value represents the concentration of a compound, where 50% of its maximal effect in the fluorimetric assay is observed if the substance concentration is graphed against the corresponding ΔF/F values (for which the calculation method is described below). Therefore, ‘fluorimetry EC50’ is a measure for the compound potency. The compound efficacy is mirrored by ‘fluorimetry % efficacy’ (‘% Efficacy’) and refers to the maximum response achievable by the test compound, i.e. the plateau effect. This drug's plateau effect is related to the plateau effect, which can be achieved by applying a saturated concentration of a reference compound, e.g. Retigabine (50 μM), in independent wells of the same experimental plate or series. A compound showing 100% efficacy is as efficacious as the reference compound (Retigabine) with a saturated concentration.
[…] CHO-K1 cells expressing KCNQ2/3 channels are cultivated adherently at 37° C., 5% CO2 and 95% humidity in cell culture bottles (e.g. 80 cm^2 TC flasks, Nunc) with DMEM-high glucose (Sigma Aldrich, D7777) including 10% FCS (PAN Biotech, e.g. 3302-P270521) or alternatively MEM Alpha Medium (1×, liquid, Invitrogen, #22571), 10% fetal calf serum (FCS) (Invitrogen, #10270-106, heat-inactivated) and the necessary selection antibiotics.
Before being sown out for the measurements, the cells are washed with 1× DPBS buffer Ca^2+/Mg^2+-free (e.g. Invitrogen, #14190-094) and detached from the bottom of the culture vessel by using Accutase (PAA Laboratories, #L11-007) (incubation with Accutase for 15 min at 37° C.). The cell number is determined using a CASY™ cell counter (TCC, Schärfe System). Depending on the optimal density for each individual cell line, 20,000-30,000 cells/well/100 μl are seeded onto 96-well Corning™ CellBIND™ assay plates (Flat Clear Bottom Black Polystyrene Microplates, #3340). Freshly seeded cells are then left to settle for one hour at room temperature, followed by incubation for 24 hours at 37° C., 5% CO2 and 95% humidity.
The voltage-sensitive fluorescent dye from the Membrane Potential Assay Kit (Red™ Bulk format part R8123 for FLIPR, MDS Analytical Technologies™) is prepared by dissolving the contents of one vessel Membrane Potential Assay Kit Red Component A in 200 ml of extracellular buffer (ES buffer, 120 mM NaCl, 1 mM KCl, 10 mM HEPES, 2 mM CaCl2, 2 mM MgCl2, 10 mM glucose; pH 7.4). After removal of the nutrient medium, the cells are washed once with 200 μl of ES buffer, then loaded for 45 min at room temperature in 100 μl of dye solution in the dark.
Fluorescence measurements are carried out in a BMG Labtech FLUOstar™, BMG Labtech NOVOstar™ or BMG Labtech POLARstar™ instrument (525 nm excitation, 560 nm emission, Bottom Read mode). […]

[2] = tested on: Male Sprague-Dawley rats; experiment: Low-intensity tail flick test (rat); format: in vivo; settings: for ED50: po, peroral, at time of maximum efficacy
Description: Method II. Low-Intensity Tail Flick Test (Rat)
In the low-intensity tail flick test, the determination of the antinociceptive effect of the compounds according to the invention towards an acute noxious thermal stimulus is carried out by measuring the withdrawal reflex of the rat tail (tail flick) in response to a radiant heat beam (analgesia meter; model 2011 of the company Rhema Labortechnik, Hofheim, Germany) according to the method described by D'Amour and Smith (J. Pharm. Exp. Ther. 72, 74 79 (1941). To this end, the rats were placed in a plexiglas restrainer, and a low-intensity radiant heat beam (48° C.) was focused onto the dorsal surface of the tail root. The stimulus intensity was adjusted to result in a mean pre-drug control withdrawal latency of about 7 s, thus also allowing a supraspinal modulation of the spinally mediated acute nociceptive reflex. A cutoff time of 30 s was applied to avoid tissue damage. Male Sprague-Dawley rats (Janvier, Le Genest St. Isle, Frankreich) with weights of 200-250 g were used. 10 rats were used per group. Before administration of a compound according to the invention, the animals were pre-tested twice in the course of five minutes and the mean of these measurements was calculated as the pre-test mean. The antinociceptive effect was determined at 20, 40 and 60 min after peroral compound administration. The antinociceptive effect was calculated based on the increase in the tail withdrawal latency according to the following formula and is expressed as percentage of the maximum possible effect (MPE [%]): MPE=[(T1−T0)/(T2−T0)]*100
In this, T0 is the control latency time before and T1 the latency time after administration of the compound, T2 is the cutoff time and MPE is the maximum possible effect. Employing variant analysis (repeated measures ANOVA) allowed testing of statistically significant differences between the compounds according to the invention and the vehicle group. The significance level was set to p≦0.05. To determine the dose dependency, the particular compound according to the invention was administered in 3-5 logarithmically increasing doses, including a threshold dose and a maximum effective dose, and the ED50 values were determined with the aid of regression analysis. The ED50 calculation was performed at the time of maximum efficacy (usually 20 min after administration of the compounds).

Compound	Emax [1]	EC50 [1]	Low intensity tail flick, rat, peroral, MPE (dose) ([2]; dose 10 mg/kg)	ED50 [2]	Low intensity tail flick, rat, peroral, MPE (dose) ([2]; dose 14.7 mg/kg)
Cc1cc(N2CCOCC2)cc(C(C)C)c1C(=O)NCc1ccc(Cl)cc1 [Example 14, N-[(4-Chlorophenyl)-methyl]-2-isopropyl-6-methyl-4-morpholin-4-yl-benzamide]	175%	136 nM	92%	3.6 mg/kg	–
CCOc1cc(N2CCOCC2)cc(C)c1C(=O)NCc1ccc(Cl)cc1 [Example 11, N-[(4-Chlorophenyl)-methyl]-2-ethoxy-6-methyl-4-morpholin-4-yl-benzamide]	141%	1350 nM	–	–	–
Cc1cc(N2CCOCC2)cc(C(F)(F)F)c1C(=O)NCc1ccc(Cl)cc1 [Example 19, N-[(4-Chlorophenyl)-methyl]-2-methyl-4-morpholin-4-yl-6-(trifluoromethyl)-benzamide]	185%	400 nM	–	–	–
CCSc1cc(N2CCOCC2)cc(C)c1C(=O)NCc1ccc(Cl)cc1 [Example 2, N-[(4-Chlorophenyl)-methyl]-2-ethylsulfanyl-6-methyl-4-morpholin-4-yl-benzamide]	152%	483 nM	–	–	–
CCS(=O)(=O)c1cc(N2CCOCC2)cc(C)c1C(=O)NCCCC(C)(C)C [Example 9, N-(4,4-Dimethyl-pentyl)-2-(ethylsulfonyl)-6-methyl-4-morpholin-4-yl-benzamide]	65%	9300 nM	–	–	–
Cc1cc(N2CCOCC2)cc(C(C)C)c1C(=O)NCc1ccc(F)cc1 [Example 17, N-[(4-Fluorophenyl)methyl]-2-isopropyl-6-methyl-4-morpholin-4-yl-benzamide]	179%	663 nM	–	2.5 mg/kg	100%
Cc1cc(N2CCOCC2)cc(C2CC2)c1C(=O)NCc1ccc(F)cc1 [Example 18, 2-Cyclopropyl-N-[(4-fluorophenyl)-methyl]-6-methyl-4-morpholin-4-yl-benzamide]	169%	982 nM	–	–	–

The next lines start with results.

Emax [1]	EC50 [1]	Compound	Low intensity tail flick, rat, peroral, MPE (dose) ([2]; dose 10 mg/kg)	ED50 [2]	Low intensity tail flick, rat, peroral, MPE (dose) ([2]; dose 14.7 mg/kg)
156%	3610 nM	Cc1cc(N2CCOCC2)cc(C(C)C)c1C(=O)NCc1ccc(Cl)cn1 [Example 34, N-[(5-Chloro-pyridin-2-yl)-methyl]-2-isopropyl-6-methyl-4-morpholin-4-yl-benzamide]	–	–	–
230%	416 nM	Cc1cc(N2CCOCC2)cc(C(C)C)c1C(=O)NCC[C@H](O)C(C)(C)C [Example 31, N-[(3S)-3-Hydroxy-4,4-dimethyl-pentyl]-2-isopropyl-6-methyl-4-morpholin-4-yl-benzamide]	–	–	–
148%	184 nM	Cc1cc(N2CCOCC2)cc(C(C)C)c1C(=O)NCc1ccc(C(F)(F)F)cc1 [Example 22, 2-Isopropyl-6-methyl-4-morpholin-4-yl-N-[[4-(trifluoromethyl)-phenyl]-methyl]-benzamide]	–	–	–
156%	453 nM	Cc1cc(N2CCCC2)cc(C(F)(F)F)c1C(=O)NCc1cccc(F)c1 [Example 26, N-[(3-Fluorophenyl)-methyl]-2-methyl-4-pyrrolidin-1-yl-6-(trifluoromethyl)-benzamide]	–	–	–
134%	693 nM	Cc1cc(N2CCOCC2)cc(C2CC2)c1C(=O)NCc1ccc(C(F)(F)F)cc1 [Example 24, 2-Cyclopropyl-6-methyl-4-morpholin-4-yl-N-[[4-(trifluoromethyl)-phenyl]-methyl]-benzamide]	–	–	–
